Literature values, collected in patent US20070275929A1, “Composition and method for controlling the transmission of noroviruses” (THE DIAL CORPORATION, priority 2006, published 2007).

System: norovirus
Settings: alcohol alone

CCO [alcohol]
contact time required to reduce norovirus populations by a factor of 3: 30 min
